According to US5681685A, “Photopolymerizable composition containing squarylium compound” (Kyowa Hakko Kogyo Co., Ltd., priority 1994, dated 1997):

Columns and labels:
[1] = disclosed in JP-A 63-138345, JP-A 63-142346, JP-A 2-48665; cited from earlier work
[2] = in the dark, light screened; background statement; cited from earlier work
[3] = background statement; cited from earlier work
[4] = Sensitivity of photosensitive layer with 3,3',4,4'-tetrakis(tert-butyldioxycarbonyl)benzophenone (Example 11); conditions: 630 nm
Excerpt: (§1) 100 parts of pentaerythritol triacrylate, 100 parts of polymethacrylate polymer [synthesized according to the methods described in Jikkenkagakukoza, Maruzen K. K., 4th edition, volume 28, page 121, 1992; Kobunshigosei no Jikkenho (Experimental method for polymer synthesis), Kagakudojin K. K., coauthored by Takayuki Otsu and Masaetsu Kinoshita, page 138, 1972; average molecular weight 150,000; methyl ester/isobutyl ester/cyclohexyl ester/free carboxylic acid=27/36/25/12], 7.9 parts of 2,4,6-tris(trichloromethyl)-s-triazine and 1 part of a squarylium compound were dissolved in 1900 parts of ethyl cellosolve to give a photosensitive resin solution. This photosensitive solution was spin-coated on an aluminium plate treated with grinding and anodic oxidation, at 1000 rpm so that the dry-state thickness became 2 μm. On this, a 10% aqueous polyvinyl alcohol (Kurarey Poval 706) solution was spin-coated at 1500 rpm so that the dry-state thickness became 1 μm to give a over-coat layer. A step tablet was piled closely on the resulting photosensitive layer, and the rays having the wavelength around 630, 650 or 680 nm were irradiated from 3kw ultra-high pressure mercury lamp through a glass filter. The rays having the wavelength around 630 nm (155 μJ/cm^2 ·s) were obtained by passing the rays from the above mercury lamp through a colored glass filter R-61, an interference filter KL-63 (both were manufactured by Toshiba Glass Co., Ltd.) and a heat rays absorbing filter HA-30 (manufactured by HOYA Corporation), the rays having the wavelength around 650 nm (177 μJ/cm^2 ·s) were obtained by passing the rays from the above mercury lamp through a colored glass filter R-63, an interference filter KL-65 (both were manufactured by Toshiba Glass Co., Ltd.) and HA-30 and the rays having the wavelength around 680 nm (88 μJ/cm^2 ·s) were obtained by passing the rays from the above mercury lamp through a glass filter R-66, an interference filter KL-68 (both were manufactured by Toshiba Glass Co., Ltd.) and HA-30. Then, the development was carried out with a PS plate developer DN3C (manufactured by Fujiphoto Film Co., Ltd.) diluted 1.5-folds with distilled water, an ink was attached thereon with a PS plate developing ink PI-2 (manufactured by Fujiphoto Film Co., Ltd.) and the sensitivity was scored by obtaining an energy amount necessary for hardening from hardening step number with an ink attached thereto.
The sensitivity when the rays having the wavelength around 630 nm were irradiated was obtained by repeating the same procedures as those of Example 9 except that 8 parts of 3,3',4,4'-tetrakis(tert-butyldioxycarbonyl)benzophenone was used in place of 7.9 parts of 2,4,6-tris(tichloromethyl)-s-triazine.

[5] = Degraded rate of squarylium compound in photosensitive resin solution with 2,4,6-tris(trichloromethyl)-s-triazine (Example 7); type: physicochemical; conditions: 40° C., 3 days, light-screened, ethyl cellosolve, relative to Compound (A)
Method: (§2) 0.5 g of pentaerythritol triacrylate, 0.5 g of butyl methacrylate/acrylic acid copolymer (weight-average molecular weight 3,100, copolymerization ratio 66/34), 60 mg of 2,4,6-tris(trichloromethyl)-s-triazine and 2 mg of a squarylium compound were dissolved in ethyl cellosolve to 25 ml to give a photosensitive resin solution. This solution was light-screened and allowed to stand at 40° C. for 3 days. The absorbance at the maximum absorption wavelength present in 600 to 700 nm was measured with a spectrophotometer before (A1) and after (A2) being allowed to stand. The degraded rate of the squarylium compound was obtained according to the following equation:
(§3) Degraded rate (%)=(A1-A2)/A1 ×100
The degraded rates of squarylium Compounds 1 to 9 are shown as a relative value based on the degraded rate of Compound (A) in Table 5.

[6] = Degraded rate of squarylium compound in photosensitive resin solution with iron(II) hexafluorophosphate complex (Example 8); type: physicochemical; parameters: key: degraded rate relative to that of Compound (A); conditions: 40° C., 32 days, light-screened, ethyl cellosolve, relative to Compound (A)
Method: as §2, §3
0.5 g of pentaerythritol triacrylate, 60 mg of polymethyl methacrylate (manufactured by Aldrich; weight-average molecular weight 12,000), 90 mg of (.eta.^6 -benzene)(.eta.^5 cyclopentadienyl)iron(II) hexafluorophosphate and 2 mg of a squarylium compound were dissolved in ethyl cellosolve to 25 ml to give a photosensitive resin solution. Thereafter, the same procedures as those in Example 7 were repeated except that a time for being allowed to stand of 3 days was replaced with that of 32 days to give the degraded rate of the squarylium compound. The degraded rate of squarylium Compounds 1 to 9 are shown as a relative value based on the degraded rate of Compound (A) in Table 6.

[7] = Sensitivity of photosensitive layer with 2,4,6-tris(trichloromethyl)-s-triazine (Example 9); conditions: energy necessary for hardening, s-triazine radical generator
Excerpt: as §1

[8] = Sensitivity of photosensitive layer with iron(II) hexafluorophosphate complex and CARBOSET XL-44 (Example 10); conditions: 630 nm; iron(II) hexafluorophosphate complex, CARBOSET XL-44
Excerpt: as §1
The sensitivity when the rays having the wavelength around 630 nm were irradiated was obtained by repeating the same procedures as those in Example 9 except that 8 parts of (.eta.^6 -benzene) (.eta.^5 -cyclopentadienyl)iron(II) hexafluorophosphate was used in place of 7.9 parts of 2,4,6-tris(trichloromethyl)-s-triazine and CARBOSET,XL-44 (manufactured by BF Goodrich) was used in place of polymethacrylate polymer (methyl ester/isobutyl ester/cyclohexyl ester/free carboxylic acid=27/36/25/12).

[9] = Optical absorption property in chloroform; type: physicochemical; conditions: solvent chloroform

| SMILES | maximum absorption wavelength [1] [nm] | degradation in photosensitizer solution [2] | solubility in an organic solvent or a monomer [3] | Sensitivity [4] [mJ/cm^2] | Relative value of degraded rate [5] | Relative value of degraded rate [6] | Sensitivity ([7]; 630 nm) [mJ/cm^2] | Sensitivity ([7]; 650 nm) [mJ/cm^2] | Sensitivity ([7]; 680 nm) [mJ/cm^2] | Sensitivity [8] [mJ/cm^2] | logε [9] | λ max [9] [nm] |
| --- | --- | --- | --- | --- | --- | --- | --- | --- | --- | --- | --- | --- |
| CN1C(=CC2=C([O-])C(=CC3=[N+](C)c4ccc5ccccc5c4C3(C)C)C2=O)C(C)(C)c2c1ccc1ccccc21 [A, reference compound] | 673 | easily degraded in the dark | low solubility | 0.43 | 1.0 | 1.0 | 0.91 | 0.56 | 0.65 | 11 |  |  |
| CCN1C(=CC2=C([O-])C(=CC3=[N+](CC)c4ccc5ccccc5c4C3(C)C)C2=O)C(C)(C)c2c1ccc1ccccc21 [Compound 1] |  |  |  |  | 0.34 | 0.51 | 0.47 | 0.40 | 0.37 |  |  |  |
| CCCN1C(=CC2=C([O-])C(=CC3=[N+](CCC)c4ccc5ccccc5c4C3(C)C)C2=O)C(C)(C)c2c1ccc1ccccc21 [Compound 2] |  |  |  |  | 0.25 | 0.48 | 0.47 | 0.40 | 0.37 |  | 5.5 | 667 |
| CC(C)N1C(=CC2=C([O-])C(=CC3=[N+](C(C)C)c4ccc5ccccc5c4C3(C)C)C2=O)C(C)(C)c2c1ccc1ccccc21 [Compound 3] |  |  |  | 0.083 | 0.24 | 0.44 | 0.39 | 0.40 | 0.26 |  | 5.5 | 666 |
| CCCCN1C(=CC2=C([O-])C(=CC3=[N+](CCCC)c4ccc5ccccc5c4C3(C)C)C2=O)C(C)(C)c2c1ccc1ccccc21 [Compound 4] |  |  |  |  | 0.29 | 0.60 | 0.39 | 0.40 | 0.37 |  |  |  |
| CC(C)CN1C(=CC2=C([O-])C(=CC3=[N+](CC(C)C)c4ccc5ccccc5c4C3(C)C)C2=O)C(C)(C)c2c1ccc1ccccc21 [Compound 5] |  |  |  | 0.20 | 0.15 | 0.42 | 0.47 | 0.56 | 0.28 | 11 | 5.5 | 669 |
| CCCCCN1C(=CC2=C([O-])C(=CC3=[N+](CCCCC)c4ccc5ccccc5c4C3(C)C)C2=O)C(C)(C)c2c1ccc1ccccc21 [Compound 6] |  |  |  | 0.099 | 0.28 | 0.46 | 0.56 | 0.40 | 0.37 | 5.8 | 5.5 | 667 |
| CCCCN1C(=CC2=C([O-])C(=CC3=[N+](CCCC)c4ccc5ccccc5c4C3(C)C)C2=O)C(C)(C)c2c1ccc1ccccc21 [Compound 7] |  |  |  | 0.20 | 0.31 | 0.56 | 0.47 | 0.40 | 0.37 | 5.8 |  |  |
| CC(C)CCN1C(=CC2=C([O-])C(=CC3=[N+](CCC(C)C)c4ccc5ccccc5c4C3(C)C)C2=O)C(C)(C)c2c1ccc1ccccc21 [Compound 8] |  |  |  |  | 0.32 | 0.43 |  |  |  |  | 5.5 | 667 |
| CCCCCCN1C(=CC2=C([O-])C(=CC3=[N+](CCCCCC)c4ccc5ccccc5c4C3(C)C)C2=O)C(C)(C)c2c1ccc1ccccc21 [Compound 9] |  |  |  | 0.17 | 0.26 | 0.52 |  |  |  | 8.7 | 5.5 | 668 |
